Measured values from article PMC5317395, “Structure and inhibitor specificity of the PCTAIRE-family kinase CDK16” (Biochemical Journal, 2017).

Biological target: T1, CDK16 (Homo sapiens, UniProt Q00536)
Test: co-crystal structure ([…] Å); also DSF ΔTm […] °C, kinase assay IC50 (E. coli CDK16 + cyclin Y/[…]-3-3), CETSA
Assay type: biochemical
Design: PCTAIRE-tide substrate
Conditions: not given

T1 sequence (Q00536 whole entry): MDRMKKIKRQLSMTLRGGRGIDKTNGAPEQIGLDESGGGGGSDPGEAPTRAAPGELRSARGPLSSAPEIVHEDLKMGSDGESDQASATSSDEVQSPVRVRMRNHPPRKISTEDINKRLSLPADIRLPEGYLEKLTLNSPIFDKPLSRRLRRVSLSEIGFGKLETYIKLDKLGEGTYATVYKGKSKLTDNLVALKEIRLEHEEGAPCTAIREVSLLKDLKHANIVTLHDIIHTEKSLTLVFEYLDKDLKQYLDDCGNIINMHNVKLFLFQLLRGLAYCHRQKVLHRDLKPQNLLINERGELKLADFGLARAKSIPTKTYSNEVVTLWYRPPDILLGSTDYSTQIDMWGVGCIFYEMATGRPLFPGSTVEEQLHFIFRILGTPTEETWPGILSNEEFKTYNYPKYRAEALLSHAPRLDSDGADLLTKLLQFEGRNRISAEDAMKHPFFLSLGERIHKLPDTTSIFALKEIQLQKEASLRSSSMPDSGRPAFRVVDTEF
T1 sequence (Q8ND76 2-341 partner): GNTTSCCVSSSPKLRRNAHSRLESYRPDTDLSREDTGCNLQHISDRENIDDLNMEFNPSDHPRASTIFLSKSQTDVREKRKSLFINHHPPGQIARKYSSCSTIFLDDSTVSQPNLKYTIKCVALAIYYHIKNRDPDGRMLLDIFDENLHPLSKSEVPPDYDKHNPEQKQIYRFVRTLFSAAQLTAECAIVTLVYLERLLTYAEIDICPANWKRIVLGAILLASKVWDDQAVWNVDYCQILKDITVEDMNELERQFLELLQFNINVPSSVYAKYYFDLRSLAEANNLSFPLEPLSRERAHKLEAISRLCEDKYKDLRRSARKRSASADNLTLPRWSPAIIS

| Structure (SMILES) | IC50 |
| --- | --- |
| CNC(=O)c1cc(Oc2ccc(NC(=O)Nc3cc(C(C)(C)C)nn3-c3ccc4ncccc4c3)c(F)c2)ccn1 [rebastinib] | 32 nM |

Biological target: T1, CDK16
Test: co-crystal structure ([…] Å); also DSF ΔTm […] °C, kinase assay IC50 (E. coli CDK16 + cyclin Y/[…]-3-3)
Assay type: biochemical
Design: PCTAIRE-tide substrate
Conditions: not given

| Structure (SMILES) | IC50 |
| --- | --- |
| O=C1Nc2ccccc2/C1=C1/Nc2ccccc2/C1=N\OCCC(O)CO (stereo not drawn) [indirubin E804] | 83 nM |

Biological target: T2, CDK16 (Homo sapiens, UniProt Q00536, S319D)
T2 construct: kinase domain, CDK16 163–478, C-terminal His tag
T2 sequence (Q00536 163-478 S319D): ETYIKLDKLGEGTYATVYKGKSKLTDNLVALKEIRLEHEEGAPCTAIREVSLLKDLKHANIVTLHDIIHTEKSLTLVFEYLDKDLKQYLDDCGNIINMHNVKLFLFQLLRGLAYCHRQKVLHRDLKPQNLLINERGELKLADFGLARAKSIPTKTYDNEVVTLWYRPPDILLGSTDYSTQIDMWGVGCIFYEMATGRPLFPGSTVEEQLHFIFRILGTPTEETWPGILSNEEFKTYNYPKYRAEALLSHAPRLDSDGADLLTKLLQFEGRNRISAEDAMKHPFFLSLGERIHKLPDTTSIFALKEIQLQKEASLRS
Test: biochemical
Design: Differential scanning fluorimetry (SYPRO Orange), 2 uM CDK16, Tm shift versus 2.5% DMSO control
Conditions: 12.5 µM; binder; Tm shift (°C)
Experimental: Thermal melting experiments were performed using a Real-Time PCR machine Mx3005p (Stratagene) as described previously. Briefly, 2 μM CDK16 was screened against a collection of kinase inhibitors in a 96-well plate format. […] Data were analysed with the MxPro software. […] To identify protein constructs suitable for structural studies, human CDK16 was recombinantly expressed in E. coli with a variety of N- and C-terminal truncations. […] To identify potential inhibitors of CDK16, we screened the recombinant protein kinase domain against many inhibitor libraries using differential scanning fluorimetry (DSF). Ligands in this assay increase a protein's melting temperature (Tm shift, ΔTm) by an amount proportional to their binding affinity. […] Rebastinib is a multitargeted type II kinase inhibitor that was developed to inhibit BCR-ABL as well as the drug-resistant gatekeeper mutant ABL^T315I (Figure 1). It has entered phase I clinical trials for chronic myeloid leukaemia.

| Tm shift (°C) | Structure (SMILES) |
| --- | --- |
| 5.2 °C | CN1CCC(C(=O)Nc2n[nH]c3nc(-c4ccc(O)cc4)c(Br)cc23)CC1 [SB-732881] |

Same assay, conditions: read-out: Tm shift (°C)

| ΔTm at 12.5 µM | Structure (SMILES) |
| --- | --- |
| 5.7 °C | O=C(Nc1c[nH]nc1-c1nc2ccc(CN3CCOCC3)cc2[nH]1)NC1CC1 [AT9283] |
| 4.7 °C | Cc1ccc([N+](=O)[O-])cc1S(=O)(=O)N(C)/N=C/c1cnc2ccc(Br)cn12 [PIK-75] |
| 6 °C | COc1ccc2c(c1)/C(=C/c1cnc[nH]1)C(=O)N2 [SU9516] |
| 4.1 °C | CNC(=O)c1cc(Oc2ccc(NC(=O)Nc3ccc(Cl)c(C(F)(F)F)c3)c(F)c2)ccn1 [Regorafenib] |
| 5.8 °C | O=C(O[C@H]1CN[C@H](C#Cc2cc3ncnc(Nc4ccc(Cc5ccccc5)cc4)c3s2)C1)N1CCOCC1 [GSK238583A] |
| 5.8 °C | CC(C)Oc1cc(Nc2nc(N[C@@H](C)c3ccc(F)cn3)ncc2Cl)n[nH]1 [AZ23] |
| 6.8 °C | NS(=O)(=O)c1ccc(N/N=C2\C(=O)Nc3ccc(C(=O)NCCc4c[nH]cn4)cc32)cc1 [GW300660X] |
| 8.7 °C | CC(C)COC(=O)c1ccc2c(c1)/C(=C/Nc1ccc(S(N)(=O)=O)cc1)C(=O)N2 [GW416981X] |
| 9.6 °C | Nc1nc(Nc2ccc(S(N)(=O)=O)cc2)nn1C(=S)Nc1c(F)cccc1F [Cdk1/2 Inhibitor III] |
| 6 °C | CC(C)(CO)CNC(=O)c1ccc2c(c1)/C(=N/Nc1ccc(S(N)(=O)=O)cc1)C(=O)N2 [GW301784X] |
| 6.2 °C | CNC(=O)c1nn(C)c2c1C(C)(C)Cc1cnc(Nc3ccc(N4CCN(C)CC4)cc3)nc1-2 [Milciclib] |
| 8.8 °C | NS(=O)(=O)c1ccc(NN=C2C(=O)Nc3ccc(C(=O)NCc4ccncc4)cc32)cc1 [GW300657X] |
| 6.7 °C | O=Nc1c(-c2c(O)[nH]c3ccc(S(=O)(=O)O)cc23)[nH]c2ccccc12 [Indirubin-3′-monoxime-5-sulphonic acid] |
| 4.8 °C | CCN(CC)Cc1ccc(Nc2nccc(-c3cnn4ncccc34)n2)cc1 [GW780056X] |
| 7.2 °C | Cc1nc(N)sc1-c1ccnc(Nc2cccc([N+](=O)[O-])c2)n1 [Cdk2/9 Inhibitor] |
| 5.5 °C | CN1CCC(C(=O)Nc2n[nH]c3nc(-c4ccc(O)cc4)c(Br)cc23)CC1 [SB-732881-H] |
| 6.1 °C | O=Nc1c(-c2c(O)[nH]c3ccc(I)cc23)[nH]c2ccccc12 [5-Iodo-indirubin-3′-monoxime] |
| 7.9 °C | N#CCCc1ccc2c(c1)-c1[nH]c3ccc([N+](=O)[O-])cc3c1CC(=O)N2 [Alsterpaullone, 2-Cyanoethyl] |
| 5.4 °C | CCN1CCC(CC(=O)Nc2n[nH]c3nc(-c4cccs4)c(Br)cc23)CC1 [SB-739245-AC] |

| Structure (SMILES) | ΔTm at 12.5 µM |
| --- | --- |
| O=C1Nc2ccccc2/C1=C1/Nc2ccccc2/C1=N\OCCC(O)CO (stereo not drawn) [indirubin E804] | 7.6 °C |
| O=C1Nc2ccccc2/C1=C\c1cnc[nH]1 [(Z,E)-3-(imidazol-4-ylmethylene)indolin-2-one] | 6.7 °C |
| CNC(=O)c1cc(Oc2ccc(NC(=O)Nc3cc(C(C)(C)C)nn3-c3ccc4ncccc4c3)c(F)c2)ccn1 [rebastinib] | 12.6 °C |
| CC(C)(C)c1nc(-c2cccc(NS(=O)(=O)c3c(F)cccc3F)c2F)c(-c2ccnc(N)n2)s1 [dabrafenib] | 10.4 °C |

Biological target: T1, CDK16
Test: […] kinase assay with PCTAIRE-tide; also DSF ΔTm […] °C
Assay type: biochemical
Design: E. coli-purified human CDK16 (kinase assay); 163–478 S319D in DSF; with cyclin Y (with endogenous 14-3-3)
Conditions: not given

| Structure (SMILES) | IC50 |
| --- | --- |
| CC(C)(C)c1nc(-c2cccc(NS(=O)(=O)c3c(F)cccc3F)c2F)c(-c2ccnc(N)n2)s1 [dabrafenib] | 35 nM |
